Source: patent publication US20260308116A1, “TERTIARY AMINE COMPOUNDS CONTAINING AN ALKYNE OR AN AZIDE MOIETY AND THEIR USE” (INSTITUT NATIONAL DE LA SANTÉ ET DE LA RECHERCHE MÉDICALE, priority 2023, published 2026)
Read-outs that look alike come from different tables or passages of the source.

Experiments:
DNA [1] = conditions: photoactivated by UVA (Dunnick et al. 1987); cited from earlier work
FA pathway = conditions: Semlow et al. 2016; Li et al. 2020; cited from earlier work
[2] = system: primary fibroblast cells from non-FA subjects (C3, C4); experiment: Repair of lesions in non-FA primary fibroblasts; assay type: cell-based
Method: HeLa, Jurkat and FA or XP primary cells (10^6 per dish) were seeded into 10 cm culture dishes and incubated overnight in culture medium. The following day, samples were treated with 0.5 μM click-Melphalan (Example 1), 0.5 μM click-MonoMelphalan (Example 2) or DMSO vehicle for 1 h. After treatment, cells were PBS-washed and released into medium. At designated time points, samples were harvested and fixed in EtOH 70%. Fixed cells where incubated in a click reaction buffer (50 μM Alexa fluor 647 azide, 1 mM copper (II) sulfate, 100 mM sodium ascorbate, 100 mM Tris-HCl pH 8.0) for 30 min at room temperature and then washed extensively using 3×5% FBS in PBS rinses to remove unbound reporter. Samples were stained with 5 μg/mL propidium iodide in 3% FBS in PBS and then analyzed using an LSR Fortessa flow cytometer (BD Biosciences, San Jose, CA). Ten thousand events were collected for each sample and gated using forward-versus side-scatter to eliminate cell debris and doublets. The data were analyzed using FlowJo software version 7.6.5 (Tree Star, San Carlos, CA).
FA patient skin fibroblast cells were cryopreserved at Saint-Louis Hospital (Paris, France). Informed consents were obtained from the patients and/or their relatives and IRB approval from the INSERM was given under the number 12-078. […]

HeLa cells [3] = experiment: Clonogenic survival assay
HeLa cells [4] = experiment: Detection of G2 arrest by flow cytometry
[5] = system: fibroblast cells from XP patients (XP1, XP2); experiment: Repair of lesions in XP patient fibroblasts
HeLa cells [6] = experiment: Reverse alkaline comet assay (ICL formation)
[7] = system: cells from subject C3 (non-XP); experiment: Repair of lesions in control (non-XP) fibroblasts
[8] = system: primary fibroblast cells from FA patients (FA1, FA2); experiment: Repair of lesions in FA patient primary fibroblasts
HeLa FANCD2 KO cells = experiment: Dual parameter plot assay (click / propidium iodide)
HeLa cells [9] = experiment: as above
HeLa cells [10] = experiment: Repair of lesions in HeLa cells, click reaction and flow cytometry
DNA [11] = experiment: Detection of click agents in cells by microscopy (Alexa Fluor 647 azide)
[12] = system: PHA-stimulated lymphocytes from FA patients; experiment: Repair of lesions in FA patient lymphocytes; conditions: both FA patients, 48 h post treatment

O=c1ccc2cc3ccoc3cc2o1 [Psoralen]
type of DNA lesions generated (DNA [1]): almost exclusively ICLs | repair of psoralen-induced ICLs by FA (FA pathway): not preferentially repaired by FA

N[C@@H](Cc1ccc(N(CCCl)CCCl)cc1)C(=O)O [melphalan, (S)-2-amino-3-(4-(bis(2-chloroethyl)amino)phenyl)propanoic acid, reference compound]
cells still positive for melphalan [2]: less than 25% | number of colonies formed (clonogenic survival) (HeLa cells [3]): similarly reduces the number of colonies formed with no significative differences | toxicity compared to mono-melphalan (HeLa cells [3]): higher toxicity of melphalan compared to mono-melphalan | overall biological response, melphalan vs click-melphalan (HeLa cells [4]): equivalent biological response | cells still positive for melphalan [5]: ~75% | IR-induced tail moment after pre-treatment (HeLa cells [6]): large decrease in the IR-induced tail moment | visual comet score in the absence of IR (HeLa cells [6]): neither Melphalan, click-Melphalan (Example 1), mono-melphalan (Comparative Example 1) nor click-mono-melphalan (Example 2) generated a visual comet score beyond the vehicle-treated control | cells still positive for melphalan [7]: 25% | cells still positive for melphalan [8]: ~100% | persistence of melphalan-induced lesions [8]: persisted in the FA patient cells up to 48 h | cell cycle block and repair until 48 h (HeLa FANCD2 KO cells): remained blocked in late S-G2 phase until 48 h with unrepaired DNA lesions | cell cycle phase of positive cells at 12 h (HeLa cells [9]): most of the HeLa positive cells are blocked in late S-G2 | fluorescence at 24 h (HeLa cells [9]): a decrease in fluorescence is observed at 24 h | repair at 48 h (HeLa cells [9]): full repair at 48 h | effect of added non-clickable melphalan on repair of click-mono-melphalan monoadducts (HeLa cells [10]): inhibited by the addition of non-clickable melphalan during the first 24 h of recovery | fluorescence in cells after click reaction (DNA [11]): do not present significant levels of fluorescence

N[C@@H](Cc1ccc(N(CCO)CCCl)cc1)C(=O)O [mono-melphalan, (S)-2-Amino-3-(4-((2-chloroethyl) (2-hydroxyethyl)amino)phenyl)propanoic acid]
number of colonies formed (clonogenic survival) (HeLa cells [3]; 1 h treatment, colonies after 15 days, parent vs click compound, FIG. 1A, 1B): similarly reduces the number of colonies formed with no significative differences | repair of lesions in PHA-stimulated lymphocytes [12]: able to repair mono-melphalan | cells still positive for mono-melphalan ([5]; XP1 and XP2, 48 h, FIG. 11B): ~100% | persistence of mono-melphalan-induced lesions ([5]; XP compared to non-XP cells, up to 48 h, FIG. 11A, 11B): persisted in the XP patient cells up to 48 hours | visual comet score in the absence of IR (HeLa cells [6]; no IR, FIG. 1C, 1D, 2C): neither Melphalan, click-Melphalan (Example 1), mono-melphalan (Comparative Example 1) nor click-mono-melphalan (Example 2) generated a visual comet score beyond the vehicle-treated control | cells still positive for mono-melphalan ([7]; subject C3, 48 h, FIG. 11B): ~0% | reduction of signal during repair of lesions, FA vs non-FA cells ([8]; FA1, FA2 vs C3, C4 fibroblasts, FIG. 9B): No significant differences in the reduction of signal | dependence of the repair delay on DNA content (HeLa FANCD2 KO cells; FIG. 7A left panel): observed in all cells independently of their DNA content | repair of DNA lesions at 24 h (HeLa FANCD2 KO cells; HeLa FANCD2 KO compared to HeLa, 24 h, FIG. 7A left panel): slightly delayed in HeLa FANCD2 KO at 24 h compared to HeLa cells
